Calls of active or inactive are those of the source.
Legend:
[1] = HepG2 cell cytotoxicity, dose response, cytotoxicity control, cherry-picks, set 5 (AID 1053118); type: functional, cell-based
[2] = HEK293 cell cytotoxicity, dose response, cytotoxicity control, cherry-picks, set 5 (AID 1053117); type: functional, cell-based
[3] = A549 cell cytotoxicity, dose response, cytotoxicity control, cherry-picks, 26 µM top dose (AID 1053119); type: functional, cell-based
[4] = molecular target: Fructose-bisphosphate aldolase (Mycobacterium tuberculosis, UniProt P9WQA3); test: Fluorescence-based biochemical high throughput dose response assay for inhibitors of the fructose-bisphosphate aldolase (FBA) of M. tuberculosis.; type: functional
[5] = molecular target: fMet-Leu-Phe receptor (Homo sapiens, UniProt P21462); test: FPR ligands, dose response (AID 519); type: functional
[6] = molecular target: Adenosylmethionine-8-amino-7-oxononanoate aminotransferase (Mycobacterium tuberculosis, UniProt P9WQ81); test: Mycobacterium tuberculosis BioA enzyme inhibitor Measured in Biochemical System Using Plate Reader - 2163-02_Inhibitor_Dose_CherryPick_Activity.; type: functional, Mycobacterium tuberculosis UT205
[7] = molecular target: Aryl hydrocarbon receptor (Homo sapiens, UniProt P35869); details: Potency;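 further: confirmatory quantitative high-throughput screen measuring activation of the AhR signaling pathway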
[8] = test system: HEK293; test: NOD1 signaling inhibitors, primary screen, cell-based, luminescence, uHTS (AID 1578); type: functional; details: Homo sapiens
[9] = test system: HEK293; test: cells; type: functional, cell-based; details: Homo sapiens
[10] = test system: HEK293; test: cells; type: functional, cell-based; details: Homo sapiens; remark: listed apart in the source
[11] = molecular target: Nucleotide-binding oligomerization domain-containing protein 2 (Homo sapiens, UniProt Q9HC29); test: NOD2 signaling inhibitors, cell-based, luminescence, uHTS, HEK293 (AID 1566); type: functional
[12] = test system: HEK293; test: NOD2 signaling inhibitors in MDP-stimulated cells, cell-based, uHTS, luminescence (AID 2001); type: functional; details: Homo sapiens
[13] = test system: HEK293; test: cells; type: functional, cell-based; details: Homo sapiens; remark: listed apart in the source
[14] = molecular target: T1, Replicative DNA helicase DnaB (Mycobacterium tuberculosis, UniProt P9WMR3); test: DnaB intein splicing inhibitors, dose response, biochemical, cell-free fluorescence (AID 449749); type: functional
T1 sequence (P9WMR3 whole entry): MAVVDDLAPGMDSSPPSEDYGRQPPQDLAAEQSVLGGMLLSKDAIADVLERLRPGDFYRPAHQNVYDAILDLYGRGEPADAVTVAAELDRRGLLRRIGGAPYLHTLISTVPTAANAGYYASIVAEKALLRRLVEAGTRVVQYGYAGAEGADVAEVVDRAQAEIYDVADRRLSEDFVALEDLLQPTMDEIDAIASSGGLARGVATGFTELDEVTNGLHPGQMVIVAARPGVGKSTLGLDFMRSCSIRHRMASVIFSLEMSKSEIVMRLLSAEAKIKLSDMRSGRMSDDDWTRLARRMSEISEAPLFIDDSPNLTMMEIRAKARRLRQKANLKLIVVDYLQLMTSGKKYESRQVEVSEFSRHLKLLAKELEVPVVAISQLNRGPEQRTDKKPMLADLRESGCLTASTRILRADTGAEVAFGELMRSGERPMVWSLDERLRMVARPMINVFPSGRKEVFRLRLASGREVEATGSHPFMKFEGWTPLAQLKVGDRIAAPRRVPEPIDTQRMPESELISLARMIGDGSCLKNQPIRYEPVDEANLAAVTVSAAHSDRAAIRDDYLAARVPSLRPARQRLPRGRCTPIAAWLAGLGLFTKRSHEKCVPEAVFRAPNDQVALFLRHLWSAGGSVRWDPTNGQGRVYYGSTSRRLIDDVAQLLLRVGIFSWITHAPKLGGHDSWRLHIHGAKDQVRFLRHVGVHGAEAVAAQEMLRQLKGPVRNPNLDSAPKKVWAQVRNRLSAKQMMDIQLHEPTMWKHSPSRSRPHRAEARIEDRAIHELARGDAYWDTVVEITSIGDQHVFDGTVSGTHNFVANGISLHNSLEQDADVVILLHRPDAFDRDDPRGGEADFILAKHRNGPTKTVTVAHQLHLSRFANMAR

[15] = molecular target: T2, Protein RecA (Mycobacterium tuberculosis, UniProt P9WHJ3); test: Fluorescence Cell-Free Homogeneous Dose Retest to Identify Inhibitors of RecA-Intein Splicing Activity. [Related pubchem assays (depositor defined):AID2097, AID2223, AID489010, AID492950]; type: functional
T2 sequence (P9WHJ3 whole entry): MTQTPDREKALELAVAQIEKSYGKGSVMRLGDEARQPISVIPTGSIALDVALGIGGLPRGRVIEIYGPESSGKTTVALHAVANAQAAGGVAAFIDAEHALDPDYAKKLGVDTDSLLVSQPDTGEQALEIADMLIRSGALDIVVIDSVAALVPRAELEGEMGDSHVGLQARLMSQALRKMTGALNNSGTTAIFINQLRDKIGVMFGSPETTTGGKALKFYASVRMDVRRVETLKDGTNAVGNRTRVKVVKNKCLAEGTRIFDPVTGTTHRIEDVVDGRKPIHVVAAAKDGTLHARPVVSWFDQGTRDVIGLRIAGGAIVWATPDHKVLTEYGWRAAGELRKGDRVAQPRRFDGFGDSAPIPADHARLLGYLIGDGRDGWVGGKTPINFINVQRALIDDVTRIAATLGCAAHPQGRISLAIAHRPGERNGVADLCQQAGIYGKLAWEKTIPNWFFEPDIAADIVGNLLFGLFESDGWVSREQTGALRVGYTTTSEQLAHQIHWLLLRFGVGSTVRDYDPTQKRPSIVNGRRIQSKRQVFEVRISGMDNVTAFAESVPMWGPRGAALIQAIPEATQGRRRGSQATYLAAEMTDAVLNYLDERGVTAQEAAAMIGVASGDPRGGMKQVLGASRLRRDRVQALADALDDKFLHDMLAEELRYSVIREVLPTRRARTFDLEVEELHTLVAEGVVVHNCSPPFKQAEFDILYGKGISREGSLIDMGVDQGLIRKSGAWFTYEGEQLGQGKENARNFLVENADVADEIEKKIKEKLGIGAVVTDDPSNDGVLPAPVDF

[16] = cells; type: functional, cell-based
[17] = molecular target: T3, Trace amine-associated receptor 1 (Homo sapiens, UniProt Q96RJ0); test: Fluorescence-based cell-based high throughput dose response assay to identify agonists of the human trace amine associated receptor 1 (TAAR1).; type: functional
T3 sequence (Q96RJ0 whole entry): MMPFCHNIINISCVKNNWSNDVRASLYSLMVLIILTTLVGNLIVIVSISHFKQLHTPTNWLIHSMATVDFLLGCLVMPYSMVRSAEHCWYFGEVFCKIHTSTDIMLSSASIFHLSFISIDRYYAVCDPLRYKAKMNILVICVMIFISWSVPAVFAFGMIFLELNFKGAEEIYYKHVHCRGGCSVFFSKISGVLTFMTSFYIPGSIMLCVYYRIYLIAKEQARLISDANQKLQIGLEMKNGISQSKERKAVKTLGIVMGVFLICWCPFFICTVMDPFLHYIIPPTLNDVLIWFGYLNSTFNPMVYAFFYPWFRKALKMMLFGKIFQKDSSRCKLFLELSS

[18] = molecular target: T3, Trace amine-associated receptor 1; test: Counterscreen for agonists of the human trace amine associated receptor 1 (hTAAR1): Fluorescence-based cell-based high throughput dose response assay to identify hTAAR1 agonist that also desensitize TAAR1 receptor response.; type: functional
[19] = cells; type: functional, cell-based; remark: listed apart in the source

fMet-Leu-Phe receptor, sequence (P21462 whole entry): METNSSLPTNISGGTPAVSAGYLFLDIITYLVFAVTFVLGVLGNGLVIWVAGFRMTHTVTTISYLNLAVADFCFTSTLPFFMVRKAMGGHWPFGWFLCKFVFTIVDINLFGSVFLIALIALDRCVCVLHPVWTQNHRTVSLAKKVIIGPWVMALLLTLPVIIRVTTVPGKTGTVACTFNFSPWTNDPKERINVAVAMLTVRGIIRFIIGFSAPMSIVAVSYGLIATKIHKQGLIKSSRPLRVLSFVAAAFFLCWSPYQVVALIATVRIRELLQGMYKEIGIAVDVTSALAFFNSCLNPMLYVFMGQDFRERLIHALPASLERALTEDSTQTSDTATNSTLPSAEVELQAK
Adenosylmethionine-8-amino-7-oxononanoate aminotransferase, sequence (P9WQ81 whole entry): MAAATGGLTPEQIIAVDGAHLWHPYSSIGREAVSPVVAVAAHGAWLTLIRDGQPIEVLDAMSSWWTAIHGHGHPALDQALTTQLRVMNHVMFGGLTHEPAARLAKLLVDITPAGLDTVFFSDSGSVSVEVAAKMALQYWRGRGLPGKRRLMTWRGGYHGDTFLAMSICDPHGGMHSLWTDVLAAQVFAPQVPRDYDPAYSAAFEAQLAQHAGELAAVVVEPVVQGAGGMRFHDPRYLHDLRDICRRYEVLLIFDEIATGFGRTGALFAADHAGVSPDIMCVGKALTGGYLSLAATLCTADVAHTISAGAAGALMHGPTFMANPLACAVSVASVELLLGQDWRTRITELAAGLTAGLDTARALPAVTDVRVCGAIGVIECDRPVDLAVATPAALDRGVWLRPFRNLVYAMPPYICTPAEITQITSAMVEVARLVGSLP
Fructose-bisphosphate aldolase, sequence (P9WQA3 whole entry): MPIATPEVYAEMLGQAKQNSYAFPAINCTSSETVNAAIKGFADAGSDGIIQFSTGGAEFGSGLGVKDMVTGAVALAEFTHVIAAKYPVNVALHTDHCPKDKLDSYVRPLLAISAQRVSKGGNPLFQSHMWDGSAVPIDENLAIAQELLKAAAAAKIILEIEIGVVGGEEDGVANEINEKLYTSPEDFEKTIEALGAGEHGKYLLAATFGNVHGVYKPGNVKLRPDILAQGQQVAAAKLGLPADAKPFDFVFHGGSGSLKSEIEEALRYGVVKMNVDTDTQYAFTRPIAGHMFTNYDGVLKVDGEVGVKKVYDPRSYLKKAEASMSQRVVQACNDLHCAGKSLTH
Aryl hydrocarbon receptor, sequence (P35869 whole entry): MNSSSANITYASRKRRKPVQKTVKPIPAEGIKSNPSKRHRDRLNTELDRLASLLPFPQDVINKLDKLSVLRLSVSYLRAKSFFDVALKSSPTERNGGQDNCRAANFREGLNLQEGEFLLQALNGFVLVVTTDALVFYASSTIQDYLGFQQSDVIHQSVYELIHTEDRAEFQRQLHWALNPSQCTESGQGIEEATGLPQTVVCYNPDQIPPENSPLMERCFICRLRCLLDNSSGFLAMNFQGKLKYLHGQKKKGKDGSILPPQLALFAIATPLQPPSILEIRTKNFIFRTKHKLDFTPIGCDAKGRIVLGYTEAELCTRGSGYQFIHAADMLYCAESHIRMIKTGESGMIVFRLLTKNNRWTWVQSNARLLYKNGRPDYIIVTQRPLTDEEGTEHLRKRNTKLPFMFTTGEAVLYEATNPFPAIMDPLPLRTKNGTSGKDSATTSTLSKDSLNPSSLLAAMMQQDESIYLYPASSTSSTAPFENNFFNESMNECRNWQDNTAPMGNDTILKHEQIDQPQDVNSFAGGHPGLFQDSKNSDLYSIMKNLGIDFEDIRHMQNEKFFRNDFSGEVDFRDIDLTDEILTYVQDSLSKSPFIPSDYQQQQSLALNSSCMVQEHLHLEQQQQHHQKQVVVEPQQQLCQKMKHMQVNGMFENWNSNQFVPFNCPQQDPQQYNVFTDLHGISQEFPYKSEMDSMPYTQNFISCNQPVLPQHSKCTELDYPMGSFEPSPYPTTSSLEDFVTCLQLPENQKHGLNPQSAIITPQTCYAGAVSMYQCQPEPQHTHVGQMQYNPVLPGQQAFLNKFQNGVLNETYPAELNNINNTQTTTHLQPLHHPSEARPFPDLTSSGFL
Nucleotide-binding oligomerization domain-containing protein 2, sequence (Q9HC29 whole entry, the tested form may be a part): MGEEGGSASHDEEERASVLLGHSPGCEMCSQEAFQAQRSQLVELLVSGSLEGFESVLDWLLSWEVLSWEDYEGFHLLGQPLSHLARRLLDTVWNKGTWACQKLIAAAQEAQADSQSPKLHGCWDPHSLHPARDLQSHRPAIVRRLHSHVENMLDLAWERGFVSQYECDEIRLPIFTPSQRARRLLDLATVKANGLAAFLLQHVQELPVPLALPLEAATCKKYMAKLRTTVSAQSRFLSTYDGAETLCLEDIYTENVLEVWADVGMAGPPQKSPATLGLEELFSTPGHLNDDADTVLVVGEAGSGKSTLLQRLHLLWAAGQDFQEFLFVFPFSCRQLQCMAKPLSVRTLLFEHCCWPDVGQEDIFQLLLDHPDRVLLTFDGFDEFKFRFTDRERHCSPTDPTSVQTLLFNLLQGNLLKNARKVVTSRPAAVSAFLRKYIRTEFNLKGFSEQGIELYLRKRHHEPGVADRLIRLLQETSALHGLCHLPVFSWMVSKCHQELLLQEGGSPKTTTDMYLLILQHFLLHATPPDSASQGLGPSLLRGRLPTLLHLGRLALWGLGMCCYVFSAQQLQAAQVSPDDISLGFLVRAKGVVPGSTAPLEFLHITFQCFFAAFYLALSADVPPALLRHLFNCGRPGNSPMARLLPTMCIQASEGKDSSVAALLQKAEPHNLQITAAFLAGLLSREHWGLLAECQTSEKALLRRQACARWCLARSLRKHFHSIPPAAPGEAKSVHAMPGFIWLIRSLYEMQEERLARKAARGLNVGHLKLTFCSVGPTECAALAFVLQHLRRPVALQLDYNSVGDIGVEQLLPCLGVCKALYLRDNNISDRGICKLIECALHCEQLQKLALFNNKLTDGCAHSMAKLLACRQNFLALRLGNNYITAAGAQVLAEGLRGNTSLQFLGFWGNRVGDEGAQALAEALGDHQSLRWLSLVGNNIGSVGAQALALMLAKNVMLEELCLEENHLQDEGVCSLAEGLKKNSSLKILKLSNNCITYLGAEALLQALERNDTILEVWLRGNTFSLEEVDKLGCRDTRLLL

## CO[C@H]1CN(C)C(=O)c2cc(NC(=O)Nc3cc(Cl)cc(Cl)c3)ccc2OC[C@H](C)NC[C@H]1C
[1]
  AC50: 16.6 µM (active)
[2]
  AC50: 34.3 µM (active)
[3]
  AC50: > 52 µM (inactive)

## COc1ccc(OC)c2c1C(=O)CC2C (stereo unspecified)
[4]
  IC50: 2.23 µM (active)

## COCCCN1C(=O)C(O)=C(C(=O)c2ccco2)C1c1ccccc1 (stereo unspecified)
[5]
  Ki: 14.5 µM (active)

## O=C(Cc1ccccc1)N1CC[C@@H]2[C@H]1c1cc(Br)ccc1N[C@@H]2CO
[6]
  AC50: 2.74 µM (active)

## CCNC(=O)[C@H]1[C@H](CO)[C@H]2Cn3c(ccc(-c4cccc(F)c4)c3=O)[C@H]2N1C(=O)Cc1cccnc1
[6]
  AC50: 17 µM (active)

## O=P(OCC(Br)CBr)(OCC(Br)CBr)OCC(Br)CBr (stereo unspecified) [TRIS(2,3-DIBROMOPROPYL)PHOSPHATE]
[7]
  AC50: 56.2 µM (inconclusive)

## COc1ccc(CN(C(=O)c2ccccc2OC)C2CCS(=O)(=O)C2)cc1 (stereo unspecified)
[5]
  Ki: > 66.7 µM (inactive)

## Cc1cc(C(=O)CCl)c(C)n1CCc1ccccc1
[8]
  EC50: 13.1 µM (active)
[9]
  IC50: 5.94 µM (active)
[10]
  IC50: 18 µM (active)
[11]
  EC50: > 20 µM (inactive)
[12]
  IC50: 13.4 µM (inactive)
[13]
  IC50: > 20 µM (inactive)
[14]
  AC50: 16.9 µM (active)
[15]
  EC50: 24.4 µM (active)
[16]
  IC50: > 29.9 µM (inactive)
[17]
  EC50: 1.86 µM (active)
[18]
  IC50: 9.06 µM (active)
[19]
  EC50: > 29.9 µM (inactive)
